# According to patent US8298522B1, “Methods of modulating MUC1 expression to inhibit inflammation” (priority 2005, dated 2012):
# Key:
# MUC1 transcription = assay: Trypsin-induced MUC1 transcription compared with NE; format: cell-based
# MUC1 = assay: Degradation of MUC1 in spent medium aliquots by NE (ELISA); format: biochemical, human; conditions: spent medium of A549 cells, 100 nM NE, 24 hr
# Method: To verify the ability of NE to degrade MUC1, aliquots of a spent medium sample containing MUC1 molecules were incubated for 24 hr in the presence of NE and the amounts of MUC1 measured by ELISA.
# MUC1 mRNA = assay: Effect of NE on MUC1 mRNA expression and stability in A549 cells (real time RT-PCR); format: cell-based, human
# Method: Referring now to FIG. 11. […] MUC1 mRNA levels were measured by real time RT-PCR and normalized to GAPDH mRNA levels. Each data point represents the mean±SEM (n=3).
# Effect of NE on MUC1 mRNA expression. A549 cells were seeded in DMEM plus 10% FBS in 24-well plates at 5.0×10^4 cells/well, cultured to confluence for 24 hr at 37° C., and treated for 24 hr with various concentrations of NE (0, 10, 25, 50, 100, or 150 nM) or vehicle control. […] At the end of each chase period, the cells were washed with PBS and MUC1 transcripts quantified by real time RT-PCR.
# Real time RT-PCR. Total RNA was isolated using RNeasy (Qiagen, Valencia, Calif.) and 2.0 μg was reverse transcribed using the iScript cDNA Synthesis kit (BioRad, Hercules, Calif.) in a total volume of 20 μl. Real time PCR was carried out using the Taqman probes and iQ™ Supermix (BioRad) according to the manufacturer's instructions. Briefly, 2.0 μl of cDNA or control plasmid was used as template for amplification in the iCycler (BioRad) with 200 nM of MUC1 or GAPDH (internal control) primers and probes. […] The CT value was defined as the number of PCR cycles required for the specific fluorescence signal to exceed the detection threshold value set by the software installed in the iCycler. […] The levels of MUC1 and GAPDH mRNAs were calculated from the standard curves and the expression of MUC1 transcripts was normalized to GAPDH transcripts.
# [1] = test system: Sp1 binding to the −99/−90 segment of the MUC1 promoter; assay: EMSA of Sp1 binding to the MUC1 promoter segment; set-up: species or system human; conditions: A549 nuclear extracts, 100 nM NE 0-120 min
# Method: Referring now to FIG. 16, NE enhances the binding of Sp1 to the −99/−90 segment in the MUC1 promoter. Confluent A549 cells were treated with vehicle control (A) or 100 nM NE (B) for 0, 10, 20, 30, 60, or 120 min. Cells were lysed and nuclear extracts were incubated with or without 100-fold molar excess of unlabeled probe, poly(dIdC) as a non-specific competitor, or Sp1 antibody for 30 min on ice, and then incubated with a [γ-^32P]-labeled oligonucleotide corresponding to the human MUC1 promoter between nucleotides −104 and −83. DNA-protein complexes were resolved on 4.5% polyacrylamide gels and analyzed by autoradiography.
# Electrophoretic mobility shift assay (EMSA). Confluent A549 cells were treated with 100 nM NE for 0, 10, 20, 30, 60, or 120 min. Following treatment, nuclear extracts were prepared as previously described (31). […]
# Protein concentrations were measured by the procedure of Bradford (8). […] The DNA-protein complexes were resolved on 4.5% polyacrylamide gels and analyzed by autoradiography as described in Lee et al. 2004, Differential expression of mu-opioid receptor gene in CXBK and B6 mice by Sp1, Mol Pharmacol 66: 1580-1584.
# MUC1 promoter = assay: MUC1 promoter-luciferase reporter assay in A549 cells; conditions: MUC1-pGL2b-transfected A549 cells, 100 nM NE, 24 hr
# [2] = test system: MUC1 protein in A549 cells
# Method: Confluent A549 cells were incubated in the presence or absence of 5.0 μg/ml of actinomycin (AcD) or 10 μg/ml of cycloheximide (Chx) for 1 hr and either non-treated or treated for 24 hr with 100 nM of NE. MUC1 protein levels in cell lysates (A) and spent media (B) were measured by ELISA. Each bar represents the mean±SEM (n=3). […] (C) Aliquots of spent media obtained from confluent A549 cells were non-treated (0 hr) or treated for 24 hr with 100 nM NE or vehicle control and MUC1 levels in the spent media determined by ELISA. Each bar represents the mean±SEM (n=3).
# A549 cells were seeded at 5.0×10^4 cells/well in 24-well plates in Dulbecco's Modified Eagle Medium (DMEM) containing 10% fetal bovine serum (FBS), 100 U/ml penicillin, and 100 μg/ml streptomycin (all from Invitrogen, Carlsbad, Calif.) and incubated at 37° C. in a humidified CO2 incubator. Confluent monolayers were washed with serum-free DMEM and treated with 100 nM (2.6 U/ml) NE or vehicle control (PBS) for 24 hr. In some experiments, the cells were pretreated for 1 hr with 5.0 μg/ml of actinomycin D or 10 μg/ml of cycloheximide prior to NE treatment. Following treatment, cell-conditioned media were collected, and the cells were washed with PBS and lysed with 500 μl/well of PBS containing 1.0% Triton X-100, 1.0% sodium deoxycholate, 1.0% protease inhibitor cocktail, and 2.0 mM phenylmethylsulfonyl fluoride (PMSF). Lysates and conditioned media were incubated for 20 min at 80° C. to inactivate residual NE, insoluble material removed by centrifugation at 14,000×g for 10 min at 4° C., and protein concentrations measured by the procedure of Bradford using bovine serum albumin as standard.
# ELISA. A549 cell lysates or cell-conditioned culture media were centrifuged at 10,000×g for 10 min at 4° C., added in triplicate to 96-well ELISA plates (MaxiSorb™, Nalge Nunc, Rochester, N.Y.), and incubated overnight at 4° C. Wells were blocked for 1 hr at room temperature (about 22° C.) with PBS, pH 7.0, containing 10 mg/ml BSA and 50 mg/ml sucrose and washed with PBS containing 0.05% Tween 20 (PBS-T). The samples were reacted for 2 hr at room temperature with 200 μg/ml of primary MUC1 antibody (GP1.4), washed with PBS-T, reacted for 2 hr at room temperature with 200 μg/ml of secondary antibody (peroxidase-conjugated goat antimouse IgG) (KPL, Gaithersburg, Md.), and washed with PBS-T. Bound antibodies were detected with tetramethylbenzidine substrate (SureBlue™, KPL), the substrate reaction stopped with 1 N HCl, and absorbencies at 450 nm measured using a microplate spectrophotometer (Dexall, Gaithersburg, Md.).
time of maximum Sp1 binding to the MUC1 promoter segment in the presence of NE [1],Substance,activity in inducing MUC1 transcription relative to that of NE (MUC1 transcription),MUC1 remaining in spent medium aliquots after incubation with NE (MUC1),"effect on MUC1 mRNA stability (MUC1 mRNA; 100 nM NE 24 hr, chase with 5.0 μg/ml actinomycin D 0-24 hr)","MUC1 mRNA levels with increasing doses and time (MUC1 mRNA; NE 0-150 nM, real time RT-PCR)",MUC1 promoter luciferase activity compared with vehicle control (MUC1 promoter),"MUC1 in spent media compared with the control group ([2]; A549 cells, 100 nM NE 24 hr, with or without AcD or Chx pretreatment)","increase of MUC1 levels in cell lysates compared with 24 hr control ([2]; confluent A549 cells, 100 nM NE, 24 hr)"
–,Trypsin,less than 10%,–,–,–,–,–,–
60 min,neutrophil elastase,–,no detectable amounts of MUC1,does not alter MUC1 mRNA stability,progressively higher MUC1 mRNA levels,significantly higher luciferase activity,45%,33%
